From DBAASP come the findings set out here.

≈ marks a conversion by molar mass, not a printed value. Where “and” joins values, the source holds several entries; their conditions need not be identical. Equal entries are not always repeated.

Holding throughout (assay): ≥ marks a high value that may be exact or a test limit, other limits are often not marked, values filed in µg/mL are converted to µM
Assay [1] has as its system Bacillus subtilis ISW 1214.
The subject of assay [2] is Escherichia coli BL21.
Assay [3] has as its system Bacillus subtilis.
The subject of assay [4] is Candida albicans.
Assay [5] concerns Escherichia coli ML-35p.
The test system of assay [6] is Listeria monocytogenes EGD.
Assay [7] has as its system Neisseria gonorrhoeae F62.
Assay [8] has as its system Neisseria gonorrhoeae FA19.
The subject of assay [9] is Pseudomonas aeruginosa MR3007.
The subject of assay [10] is Staphylococcus aureus 930918-3.
Assay [11] deals with Bacillus subtilis ATCC 62037.
The test system of assay [12] is Candida albicans ATCC 10231.
The test system of assay [13] is Escherichia coli ATCC 27325.
Assay [14] concerns Pseudomonas putida ATCC 17426.
The subject of assay [15] is Saccharomyces cerevisiae ATCC 44774.
In assay [16] the test system is Salmonella enterica subsp. enterica serovar Enteritidis ATCC 13076.
Assay [17] has as its system Staphylococcus aureus ATCC 15752.
Assay [18] relates to Streptococcus mutans ATCC 25175.
Assay [19] has as its system Bacillus subtilis KCTC 3038.
In assay [20] the test system is Cryptococcus neoformans ATCC 34881.
The subject of assay [21] is Enterococcus faecalis ATCC 29212.
Assay [22] deals with Micrococcus luteus ATCC 10240.
The subject of assay [23] is Pseudomonas aeruginosa ATCC 27853.
Assay [24] deals with Salmonella typhimurium KCTC 2370.

As for `CC(=O)NCC(=O)N[C@@H](Cc1c[nH]c2ccccc12)C(=O)N[C@@H](CC(C)C)C(=O)N[C@@H](CCC(N)=O)C(=O)N[C@@H](CC(C)C)C(=O)N[C@@H](C)C(=O)N[C@@H](CCC(N)=O)C(=O)N[C@@H](Cc1cnc[nH]1)C(=O)N[C@@H](CC(C)C)C(=O)N[C@@H](CC(C)C)C(=O)N[C@@H](CCC(N)=O)C(=O)N[C@@H](CC(C)C)C(=O)NCC(=O)N[C@@H](CCC(N)=O)C(=O)N[C@@H](Cc1cnc[nH]1)C(=O)N[C@@H](CC(C)C)C(=O)N[C@@H](CC(C)C)C(=O)N[C@@H](CCC(N)=O)C(=O)N[C@@H](CC(C)C)C(=O)N[C@@H](C)C(=O)N[C@@H](CCC(N)=O)C(=O)N[C@@H](CCC(N)=O)C(=O)N[C@@H](CC(C)C)C(=O)N[C@@H](CCCN=C(N)N)C(=O)N[C@@H](CCCN=C(N)N)C(=O)N[C@@H](CCCN=C(N)N)C(N)=O` [GWLQLAQHLLQLGQHLLQLAQQLRRR], the figures for the MIC in assay [1] and in [2] were 2.5 µM (≈ 7.9 µg/mL) and not below 160 µM, respectively.

Take `CC(C)C[C@H](N)C(=O)N[C@H]1CSSC[C@@H](C(=O)N[C@H](C(N)=O)C(C)C)NC(=O)[C@H](C(C)C)NC(=O)[C@@H]2CSSC[C@H](NC(=O)[C@H](Cc3ccc(O)cc3)NC1=O)C(=O)N[C@@H](CCCN=C(N)N)C(=O)N[C@@H](CCCN=C(N)N)C(=O)N[C@@H](CCCN=C(N)N)C(=O)N[C@@H](Cc1ccccc1)C(=O)N2` [LCYCRRRFCVCV]: the MIC in assay [3] is 0.22 µM and 0.21 µM; in [4] it was 7.58 µM (≈ 11.5 µg/mL); in [5] it was 0.28 µM and 0.26 µM; in [6] it was 0.26 µM and 0.55 µM; in assay [7], 0.64 µM (≈ 0.97 µg/mL); in assay [8] it was 1.34 µM (≈ 2.03 µg/mL). The MIC in [9] was 0.2 µM and 0.29 µM; in assay [10], 0.33 µM and 0.4 µM.

In the case of `CC[C@H](C)[C@H](NC(=O)[C@@H]1CCCN1C(=O)[C@H](Cc1c[nH]c2ccccc12)NC(=O)[C@H](CCC(N)=O)NC(=O)[C@H](CCCN=C(N)N)NC(=O)[C@@H](NC(=O)[C@@H](NC(=O)[C@@H](N)CCCN=C(N)N)C(C)C)C(C)C)C(=O)NCC(=O)N[C@@H](CCCN=C(N)N)C(=O)N[C@H](C(=O)N[C@H](C(=O)N[C@@H](CCCN=C(N)N)C(=O)N[C@@H](CCCN=C(N)N)C(=O)N[C@H](C(=O)N[C@H](C(=O)N[C@@H](CCCN=C(N)N)C(=O)N[C@@H](CCCN=C(N)N)C(=O)N[C@H](C(=O)N[C@H](C(=O)N[C@@H](CCCN=C(N)N)C(=O)N[C@@H](CC(C)C)C(=O)O)C(C)C)C(C)C)C(C)C)C(C)C)C(C)C)C(C)C` [RVVRQWPIGRVVRRVVRRVVRL], the minimal inhibitory concentration (MIC) in [11] was 0.726 µM (≈ 2 µg/mL); in assay [12], 0.726 µM (≈ 2 µg/mL); in assay [13] it was 0.726 µM (≈ 2 µg/mL); in assay [14], 1.45 µM (≈ 4 µg/mL); in [15], 0.726 µM (≈ 2 µg/mL); in [16], 1.45 µM (≈ 4 µg/mL). Also, the MIC in assay [17] and in [18] was 0.726 µM (≈ 2 µg/mL) in each case.

Turning to `CC(C)[C@H](NC(=O)CNC(=O)[C@H](CCC(N)=O)NC(=O)[C@@H](NC(=O)[C@@H](NC(=O)[C@@H]1CCCN1C(=O)[C@H](CCCN=C(N)N)NC(=O)[C@@H](NC(=O)[C@@H](NC(=O)[C@@H](N)CCCN=C(N)N)C(C)C)C(C)C)C(C)C)C(C)C)C(=O)N[C@@H](CCCCN)C(=O)N[C@@H](CCC(N)=O)C(=O)N[C@@H](CCCCN)C(=O)N[C@H](C(=O)N[C@@H](CCCN=C(N)N)C(=O)O)C(C)C` [RVVRPVVQGVKQKVR], the MIC in assay [19] is not below 36.6 µM; in assay [12] it was 36.6 µM (≈ 64 µg/mL); in [20], not below 36.6 µM; in assay [21], more than 36.6 µM; in [13], not below 36.6 µM; in assay [22] it was not below 36.6 µM. Also, the MIC was 9.15 µM (≈ 16 µg/mL) in assay [23], 18.3 µM (≈ 32 µg/mL) in [15], not below 36.6 µM in assay [24] and not below 36.6 µM in [17].
